From article PMC6327044, “A chemical biology screen identifies a vulnerability of neuroendocrine cancer cells to SQLE inhibition” (Nature Communications, 2019)

Key:
Assay in all cases: cells
Design in all cases: species or system panel of 482 human cancer cell lines; ATPLite luminescence growth inhibition after treatment, nine-point dilution curve, 482 cancer cell lines, 384-well
Conditions in all cases: 72 h, recommended growth medium
[1] = system: MM1R_HAEMATOPOIETIC_AND_LYMPHOID_TISSUE
Procedure: (§1) Cells were seeded in recommended growth media in black 384-well tissue culture treated plates at 500 cells per well. Cells were equilibrated in assay plates via centrifugation and placed in incubators for 24 h before treatment. […] Treated assay plates were incubated with compounds for 72 h and subsequently were developed for endpoint analysis using ATPLite. Each compound was assessed using a nine-point dilution curve. Cells were defined as sensitive to a given compound based on GI75 < 2 μM with manual quality control of curve fit. GI75 is defined as a drug concentration that causes a 75% reduction in assay readout relative to dimethyl sulfoxide (DMSO)-treated controls. To identify novel cancer vulnerabilities, we screened a panel of 482 cell lines with a diverse set of metabolic inhibitors. […] Given that SCLC is thought to arise from neuroendocrine cells in the lung[9], we tested the NB-598 sensitivity in a panel of 42 SCLC cell lines. We calculated a quantitative metric of sensitivity for each cell line based on the area under the curve (AUC) of the mu/mu.max curve to more accurately capture the potency and extent of NB-598 effects. […] We categorized the SCLC cell lines as sensitive (5/42), moderate (11/42), and insensitive (26/42) (Fig. 1c and Supplementary Data 2) and focused all subsequent efforts on this indication. […] To further understand the patterns of sensitivity, we conducted RNA sequencing (RNA-Seq; Supplementary Data 3) and proteomic (Supplementary Data 4) characterization of the SCLC panel to identify unbiased expression signatures associated with enhanced NB-598 response (Supplementary Fig. 1 and Supplementary Fig. 2). Given the growing understanding that SCLC tumors can be further subdivided based on the status of lineage-defining transcription factors, ASLC1 and NEUROD1, we specifically investigated NB-598 response as the function of ASCL1 and NEUROD1 expression levels. […] To further dissect the NB-598 response within the ASCL1-high/NEUROD-low subset of 25 cell lines, we identified RNA-Seq and proteomics expression signatures associated with NB

HEC1A_ENDOMETRIUM = system: HEC1A_ENDOMETRIUM
Procedure: as §1

SNU503_LARGE_INTESTINE = system: SNU503_LARGE_INTESTINE
Procedure: as §1

NCIH2126_LUNG = system: NCIH2126_LUNG
Procedure: as §1

[2] = system: CAL33_UPPER_AERODIGESTIVE_TRACT
Procedure: as §1

KURAMOCHI_OVARY = system: KURAMOCHI_OVARY
Procedure: as §1

2313287_STOMACH = system: 2313287_STOMACH
Procedure: as §1

[3] = system: KMS34_HAEMATOPOIETIC_AND_LYMPHOID_TISSUE
Procedure: as §1

NCIH1581_LUNG = system: NCIH1581_LUNG
Procedure: as §1

CHP126_AUTONOMIC_GANGLIA = system: CHP126_AUTONOMIC_GANGLIA
Procedure: as §1

NCIH2171_LUNG = system: NCIH2171_LUNG
Procedure: as §1

[4] = system: HTK_HAEMATOPOIETIC_AND_LYMPHOID_TISSUE
Procedure: as §1

DU4475_BREAST = system: DU4475_BREAST
Procedure: as §1

MFE280_ENDOMETRIUM = system: MFE280_ENDOMETRIUM
Procedure: as §1

UACC893_BREAST = system: UACC893_BREAST
Procedure: as §1

TE6_OESOPHAGUS = system: TE6_OESOPHAGUS
Procedure: as §1

HCC95_LUNG = system: HCC95_LUNG
Procedure: as §1

- GI50 [1]: 8870 nM
- GI50 (SNU503_LARGE_INTESTINE): 598 nM
- GI50 (HCC95_LUNG): 134 nM
SMILES: CCN(C/C=C/C#CC(C)(C)C)Cc1cccc(OCc2cc(-c3ccsc3)cs2)c1 [NB-598]
- GI50 (HEC1A_ENDOMETRIUM): 12600 nM
- GI50 (NCIH2126_LUNG): 144 nM
- GI50 [2]: 42.5 nM
- GI50 (KURAMOCHI_OVARY): 52000 nM
- GI50 (2313287_STOMACH): 2190 nM
- GI50 [3]: 2070 nM
- GI50 (NCIH1581_LUNG): 12.4 nM
- GI50 (CHP126_AUTONOMIC_GANGLIA): 38.2 nM
- GI50 (NCIH2171_LUNG): 2270 nM
- GI50 [4]: 4770 nM
- GI50 (DU4475_BREAST): 61.7 nM
- GI50 (MFE280_ENDOMETRIUM): 16.9 nM
- GI50 (UACC893_BREAST): 1190 nM
- GI50 (TE6_OESOPHAGUS): 9280 nM
